According to patent US10662203B2, “Pyrido[2,3-b]indole compounds for the treatment and prophylaxis of bacterial infection” (Hoffmann-La Roche Inc., priority 2017, dated 2020):
Converted amounts (≈) assume the structure as drawn.

Legend:
A. baumannii (ATCC17978) = test: 50% growth inhibitory concentration (IC50) determination assay; type: cell-based; settings: Acinetobacter baumannii, ATCC17978, A. baumannii ATCC17978; Iso-Sensitest broth; 0.098 = detection limit
How it was run: (§1)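 First, DMSO stocks are diluted two-fold to give 50–0.097 μM final. Next, wells receive bacterial suspension in Iso-Sensitest broth for ~5×10^5 CFU/mL. Plates then sit at 35±2° C while OD at 600 nm is recorded every 20 min for 16 h.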

[1] = system: K. pneumoniae (ATCC10031); test: as above; type: cell-based; settings: Klebsiella pneumoniae, Iso-Sensitest broth, 0.098 = detection limit
How it was run: as §1

S. aureus (ATCC29213) = test: as above; type: cell-based; settings: Staphylococcus aureus, Iso-Sensitest broth, 0.098 = detection limit
How it was run: as §1

[2] = Lyophilisation solubility assay (LYSA); type: physicochemical; settings: 0.05 M phosphate buffer, HPLC-UV; for solubility thermodynamic: phosphate buffer, pH 6.5, aqueous buffer, thermodynamic from solid
Method: Lyophilisation Solubility Assay (LYSA):
The solubility of compounds of present invention was assessed by LYSA assay. Samples were prepared in duplicate from 10 mM DMSO stock solutions (20 μL) diluted in 30 μL pure DMSO. After evaporation of DMSO with a centrifugal vacuum evaporator, the residue was dissolved in 0.05 M phosphate buffer (150 μL, pH 6.5), which was stirred for one hour and shook for two hours. After one night, the solution was filtered using a microtiter filter plate. Then the filtrate and its 1/10 dilution were analyzed by HPLC-UV.

IC50 (A. baumannii (ATCC17978)) [µM]	IC50 [1] [µM]	IC50 (S. aureus (ATCC29213)) [µM]	solubility thermodynamic [2] [µg/mL]	Lysa ([2]; pH 6.5) [µg/mL]	SMILES
0.295	< 0.098	< 0.098	366 (≈ 621 µM)	–	CNc1cc(F)c(F)c2c1[nH]c1ncc(-c3cnc4c(c3)c(=O)c(C(=O)O)cn4COC)c(N3CC[C@H]4CN(C)C[C@H]43)c12 (relative stereo) [Example 5.06, 6-[4-[cis-5-methyl-2,3,3a,4,6,6a-hexahydropyrrolo[2,3-c]pyrrol-1-yl]-5,6-difluoro-8-(methylamino)-9H-pyrido[2,3-b]indol-3-yl]-1-(methoxymethyl)-4-oxo-1,8-naphthyridine-3-carboxylic acid]
0.935	0.101	< 0.098	32 (≈ 55.6 µM)	–	CCN1CCCC1Cn1cc(C(=O)O)c(=O)c2cc(-c3cnc4[nH]c5c(NC)cc(F)c(F)c5c4c3N(C)C)cnc21 (stereo not shown) [Example 1.04]
–	–	–	389 (≈ 693 µM)	–	CNc1cc(F)c(F)c2c1[nH]c1ncc(-c3cnc4c(c3)c(=O)c(C(=O)O)cn4C)c(N3CCC[C@@H]3CN(C)C)c12 [Example 1.13]
0.289	< 0.098	< 0.098	485 (≈ 803 µM)	–	CNc1cc(F)c(F)c2c1[nH]c1ncc(-c3cnc4c(c3)c(=O)c(C(=O)O)cn4C)c(N3CC4C(CN(C)C)CO[C@@H]4C3)c12 (stereo partly shown) [Example 1.88]
0.14	< 0.098	< 0.098	88 (≈ 153 µM)	–	CNc1cc(F)cc2c1[nH]c1ncc(-c3cnc4c(c3)c(=O)c(C(=O)O)cn4NC)c(N3CCC(F)(CN(C)C)C3)c12 (stereo not shown) [Example 1.92]
0.094	< 0.098	< 0.098	105 (≈ 177 µM)	–	CNc1cc(F)c(F)c2c1[nH]c1ncc(-c3cnc4c(c3)c(=O)c(C(=O)O)cn4NC)c(N3CCC(F)(CN(C)C)C3)c12 (stereo not shown) [Example 1.93]
0.269	< 0.098	< 0.098	169 (≈ 280 µM)	–	CNc1cc(F)c(F)c2c1[nH]c1ncc(-c3cnc4c(c3)c(=O)c(C(=O)O)cn4C)c(N3CC[C@H]4CN(CCOC)CC43)c12 (stereo partly shown) [Example 1.96]
0.9	< 0.098	0.272	632 (≈ 1090 µM)	–	CNc1cc(F)c(F)c2c1[nH]c1ncc(-c3cnc4c(c3)c(=O)c(C(=O)O)cn4C)c(N3CCC(O)(CN(C)C)C3)c12 (stereo not shown) [Example 1.100]
0.15	< 0.098	< 0.098	214 (≈ 372 µM)	–	CNc1cc(F)c(F)c2c1[nH]c1ncc(-c3cnc4c(c3)c(=O)c(C(=O)O)cn4C)c(N3CCC(C)(CN(C)C)C3)c12 (stereo not shown) [Example 1.101]
0.13	–	–	11 (≈ 19.7 µM)	–	CNc1c(F)c(F)cc2c1[nH]c1ncc(-c3cnc4c(c3)c(=O)c(C(=O)O)cn4C)c(N3CC[C@H]4CN(C)CC43)c12 (stereo partly shown) [Example 1.103]
0.074	< 0.098	< 0.098	71 (≈ 128 µM)	–	CNc1cc(F)cc2c1[nH]c1ncc(-c3cnc4c(c3)c(=O)c(C(=O)O)cn4C)c(N3CC4[C@H](CCCN4C)C3)c12 (stereo partly shown) [Example 1.110]
0.115	< 0.098	< 0.098	112 (≈ 196 µM)	–	CNc1cc(F)cc2c1[nH]c1ncc(-c3cnc4c(c3)c(=O)c(C(=O)O)cn4NC)c(N3CC4[C@H](CCCN4C)C3)c12 (stereo partly shown) [Example 1.111]
0.169	< 0.098	< 0.098	37 (≈ 64.1 µM)	–	CNc1cc(F)c(F)c2c1[nH]c1ncc(-c3cnc4c(c3)c(=O)c(C(=O)O)cn4C)c(N3CCC4(F)CN(C)CC34)c12 (stereo not shown) [Example 1.120]
0.215	< 0.098	< 0.098	58 (≈ 97.9 µM)	–	CNc1cc(F)c(F)c2c1[nH]c1ncc(-c3cnc4c(c3)c(=O)c(C(=O)O)cn4NC)c(N3CCC4(F)CN(C)CC34)c12 (stereo not shown) [Example 1.121]
0.696	< 0.098	< 0.098	48 (≈ 77.3 µM)	–	CCNc1cc(C(F)(F)F)cc2c1[nH]c1ncc(-c3cnc4c(c3)c(=O)c(C(=O)O)cn4NC)c(N3CC[C@H]4CN(C)CC43)c12 (stereo partly shown) [Example 1.123]
0.074	< 0.098	< 0.098	151 (≈ 255 µM)	–	CNc1cc(F)c(F)c2c1[nH]c1ncc(-c3cnc4c(c3)c(=O)c(C(=O)O)cn4C)c(N3CCC4(CF)CN(C)CC34)c12 (stereo not shown) [Example 1.124]
0.079	< 0.098	< 0.098	262 (≈ 432 µM)	–	CNc1cc(F)c(F)c2c1[nH]c1ncc(-c3cnc4c(c3)c(=O)c(C(=O)O)cn4NC)c(N3CCC4(CF)CN(C)CC34)c12 (stereo not shown) [Example 1.125]
0.116	< 0.098	< 0.098	20 (≈ 36.6 µM)	–	CNc1cc(Cl)cc2c1[nH]c1ncc(-c3cnc4c(c3)c(=O)c(C(=O)O)cn4C)c(N3CCC(N(C)C)C3)c12 (stereo not shown) [Example 1.139]
0.485	< 0.098	< 0.098	485 (≈ 825 µM)	–	CNc1cc(F)cc2c1[nH]c1ncc(-c3cnc4c(c3)c(=O)c(C(=O)O)cn4C)c(N3CCC(CN(C)CCOC)C3)c12 (stereo not shown) [Example 1.141]
0.305	< 0.098	< 0.098	49 (≈ 90.1 µM)	–	CNc1cc(F)cc2c1[nH]c1ncc(-c3cnc4c(c3)c(=O)c(C(=O)O)cn4C)c(N3C[C@H](C)[C@@H](N(C)C)C3)c12 [Example 1.152]
0.388	< 0.098	0.372	201 (≈ 321 µM)	–	CNc1cc(F)cc2c1[nH]c1ncc(-c3cnc4c(c3)c(=O)c(C(=O)O)cn4NCC(F)(F)F)c(N3CCC[C@H]3CN(C)C)c12 [Example 1.153]
0.299	< 0.098	< 0.098	42 (≈ 71.5 µM)	–	CNc1cc(F)c(F)c2c1[nH]c1ncc(-c3cnc4c(c3)c(=O)c(C(=O)O)cn4C)c(N3CC4(CC4)C[C@H]3CN(C)C)c12 [Example 1.157]
0.23	–	–	–	49	CNc1cc(F)c(F)c2c1[nH]c1ncc(-c3cnc4c(c3)c(=O)c(C(=O)O)cn4C)c(N3C[C@H](OC)[C@@H](N(C)C)C3)c12 [Example 1.158]
0.267	–	–	73 (≈ 130 µM)	–	CNc1cc(F)c(F)c2c1[nH]c1ncc(-c3cnc4c(c3)c(=O)c(C(=O)O)cn4C)c(N3CCN4CCC[C@H]4C3)c12 [Example 1.219]
0.141	–	–	79 (≈ 141 µM)	–	CNc1cc(F)c(F)c2c1[nH]c1ncc(-c3cnc4c(c3)c(=O)c(C(=O)O)cn4C)c(N3CCN4CCC[C@@H]4C3)c12 [Example 1.220]
–	–	–	55 (≈ 93.1 µM)	–	CNc1cc(F)c(F)c2c1[nH]c1ncc(-c3cnc4c(c3)c(=O)c(C(=O)O)cn4NC)c(N3CC4OCCN(C)C4C3)c12 (stereo not shown) [Example 1.236]
–	–	–	254 (≈ 432 µM)	–	CNc1cc(F)c(F)c2c1[nH]c1ncc(-c3cnc4c(c3)c(=O)c(C(=O)O)cn4NC)c(N3CCC4CN(C)CCC43)c12 (stereo not shown) [Example 1.244]
–	–	–	180 (≈ 322 µM)	–	CNc1cc(F)c(F)c2c1[nH]c1ncc(-c3cnc4c(c3)c(=O)c(C(=O)O)cn4C)c(N3CC[C@@H]4CN(C)C[C@@H]43)c12 [Example 3.03B]
–	–	–	174 (≈ 310 µM)	–	CNc1cc(F)c(F)c2c1[nH]c1ncc(-c3cnc4c(c3)c(=O)c(C(=O)O)cn4N)c(N3CC[C@H]4CN(C)CC43)c12 (stereo partly shown) [Example 5.02]
–	–	–	250 (≈ 461 µM)	–	CNc1cc(F)cc2c1[nH]c1ncc(-c3cnc4c(c3)c(=O)c(C(=O)O)cn4N)c(N3CC[C@H]4CN(C)CC43)c12 (stereo partly shown) [Example 5.05]
